Measurements taken from EP3248604A1, “AGENTS FOR MODULATION OF WNT-TCF SIGNALLING AND USES THEREOF” (UNIVERSITE DE GENEVE, priority 2016, dated 2017).

Experiments:
cell proliferation = test: BrdU incorporation assay; format: cell-based; conditions: Example 3 (Ls174T, DLD1 cells)
Experimental: Cells incubated in vitro with different compounds were treated in DMEM-F12 with reduced serum (2.5% FBS) for 20 min with BrdU (5-bromo-2'-deoxyuridine; 10mg/ml, Sigma), washed and fixed with fresh paraformaldehyde (PFA; 4%, pH 8) followed by acid treatment and neutralization (Melotti et al., 2014, supra). Antibody analyses used anti-BrdU antibodies (supplied by University of Iowa Hybridoma Bank) and rhodamine-coupled anti-mouse secondary antibodies (Invitrogen Molecular Probes). Nuclei were counterstained with DAPI (4',6-diamidino-2-phenylindole; Sigma).

WNT-TCF targets [1] = test: RT-qPCR gene expression in Ls174T cells; format: cell-based, human; conditions: Ls174T
Experimental: (§1) RT-qPCR was performed as in Melotti et al. (2014, supra) using BioRad equipment and reagents. Cells cultured in nitro were treated with the desired concentration of drug in DMEM-F12 and reduced serum (2.5% FBS) for 16h, unless otherwise noted, and collected in Trizol (Sigma) before total RNA extraction and cDNA synthesis. Primers were as in Table 1. HPRT (gene encoding Hypoxanthine phosphoribosyltransferase 1) and βACTIN were used as housekeeping controls for normalization.
Compounds have been tested for the transcriptional modulation of a restricted TCF signature in human colon cancer Ls174T cells. These included the direct targets AXIN2 (gene encoding a protein axis inhibition protein 2), LGR5 (gene encoding encodes leucine-rich repeat-containing G-protein coupled receptor 5) and cMYC (a regulator gene encoding a transcription factor), which should be repressed by WNT-TCF response antagonists and p21 (or CDKN1A, gene encoding a cyclin-dependent kinase inhibitor that inhibits the complexes of CDK2 and CDK1), which should be induced.

WNT-TCF targets [2] = test: RT-qPCR gene expression in MeWo melanoma cells; format: cell-based, human; conditions: 16h, batch 3, vs DMSO=1
Experimental: as §1
Primary colon cells CC14, CC36 and mCC11, colon cancer cell lines DLD1, HT29, Ls174T, melanoma cell line MeWo, glioblastoma cell lines U87 and U251, and the lung cancer cell line H358 were cultured in DMEM-F12 with 10% FBS under standard in nitro conditions.

WNT-TCF targets [3] = test: RT-qPCR in cells dissociated from DLD1 xenograft tumors, treated in vitro; format: cell-based, human; conditions: 16h, vs DMSO
Experimental: as §1
Four DLD1 regressed tumors were monitored after cessation of CAP2 treatment to determine recurrence after drug withdrawal. […] Tumor regrowth, however, could be due in principle to insufficient drug dosage or to the development of drug resistance. To test these possibilities the recurrent tumor was thus excised and the cells plated in vitro to test for the possible development of CAP2 resistance. One control in vivo cyclodextrin-treated tumor taken before reaching the legal (at around 21 day) limit was similarly processed to serve as control. […] The levels of WNT-TCF targets were generally lower in cells derived from tumors that were exposed in vivo to CAP2 in comparison to those in cells from tumors that were not treated with CAP2 (Figure 10). […] This consistent difference in the levels of several WNT-TCF targets raised the possibility that whereas tumor recurrence might be due to incomplete initial dosage, the recurring tumor harbored the memory of previous CAP2 treatment.

Epigenetic regulators = test: RT-qPCR of epigenetic regulators in MeWo cells; format: cell-based, human; conditions: 0.5 µM
Experimental: as §1
The WNT-TCF-independent repressive activity of CAP2 on epigenetic regulators may be extrapolated to other cancer cells as it was also detected in HT29 and CC14 human colon cancer cells, in MeWo human melanoma cells as well as in U87 and U251 human glioma cells. In all these different human cancer cells, CAP2 (at 0.5 µM) modulated the expression of ZMYND8, SMARCAL1, TBLIXR1, SETD6 and TAF5Ls (Table 15).

[4] = 1.25µM, 16h, batch 3, vs DMSO=1
[5] = 5µM batch 3, 2h post-treatment, vs DMSO=1
[6] = 5µM batch 3, 4h post-treatment, vs DMSO=1
[7] = Table 11, head 'in vitro', concentration not given
[8] = DLD1 CAP2-treated tumor dissociated re-treated in vitro, 2.5µM
[9] = DLD1 CAP2-treated tumor dissociated re-treated in vitro, 5µM
[10] = DLD1 control tumor dissociated treated in vitro, 2.5µM
[11] = DLD1 control tumor dissociated treated in vitro, 5µM

In the case of `CC1=C(C)C(=O)O[C@@H]([C@](C)(O)[C@]2(O)CC[C@@]3(O)[C@@H]4CC=C5CC=CC(=O)[C@]5(C)[C@H]4CC[C@]23C)C1` [CAP2], the “concentration which changes cell proliferation assessed by BrdU incorporation” value (cell proliferation) is reported as 1.25 µM, the AXIN2 expression (WNT-TCF targets [1]; [4]) is reported as 0.6 and the LGR5 expression (WNT-TCF targets [1]; [4]) is reported as 0.2. For the same compound, the AXIN2 expression (WNT-TCF targets [1]; 2.5µM, 16h, batch 3, vs DMSO=1) was 0.4, the LGR5 expression (WNT-TCF targets [1]; 2.5µM, 16h, batch 3, vs DMSO=1) was 0.1 and the AXIN2 expression (WNT-TCF targets [1]; [5]) was 0.2. The LGR5 expression (WNT-TCF targets [1]; [5]) was 0.7, the AXIN2 expression (WNT-TCF targets [1]; [6]) was 0.1 and the LGR5 expression (WNT-TCF targets [1]; [6]) was 0.1. For the same compound, the AXIN2 expression (WNT-TCF targets [1]; 5µM, 16h, batch 3, vs DMSO=1) was 0.2, the LGR5 expression (WNT-TCF targets [1]; 5µM, 16h, batch 3, vs DMSO=1) was 0.03 and the AXIN2 expression (WNT-TCF targets [1]; 10 µM, 16h) was 0.6. It also gave a CDKN1A expression (WNT-TCF targets [1]; 10 µM, 16h) of 3.7, an LGR5 expression (WNT-TCF targets [1]; 10 µM, 16h) of 0.7 and a cMYC expression (WNT-TCF targets [1]; 10 µM, 16h) of 0.6. For the same compound, the AXIN2 expression (WNT-TCF targets [1]; 10µM, 16h, batch 3, vs DMSO=1) was 0.1, the LGR5 expression (WNT-TCF targets [1]; 10µM, 16h, batch 3, vs DMSO=1) was 0.1 and the “AXIN2 expression level as compared to control” value (WNT-TCF targets [1]; 2D culture, 2.5µm) was 0.4. It also gave an ASCL2 expression (WNT-TCF targets [1]; Table 7, 1.25µM, vs DMSO=1) of 1.1, an AXIN2 expression (WNT-TCF targets [1]; Table 7, 1.25µM, vs DMSO=1) of 0.7 and a CDKN1A expression (WNT-TCF targets [1]; Table 7, 1.25µM, vs DMSO=1) of 3.5. It also gave an LEF1 expression (WNT-TCF targets [1]; Table 7, 1.25µM, vs DMSO=1) of 1.2, an LGR5 expression (WNT-TCF targets [1]; Table 7, 1.25µM, vs DMSO=1) of 0.3 and a cMYC expression (WNT-TCF targets [1]; Table 7, 1.25µM, vs DMSO=1) of 0.04. It also gave an ASCL2 expression (WNT-TCF targets [1]; Table 7, 2.5µM, vs DMSO=1) of 0.4, an AXIN2 expression (WNT-TCF targets [1]; Table 7, 2.5µM, vs DMSO=1) of 0.4 and a CDKN1A expression (WNT-TCF targets [1]; Table 7, 2.5µM, vs DMSO=1) of 5.4. It also gave an LEF1 expression (WNT-TCF targets [1]; Table 7, 2.5µM, vs DMSO=1) of 0.7, an LGR5 expression (WNT-TCF targets [1]; Table 7, 2.5µM, vs DMSO=1) of 0.2 and a cMYC expression (WNT-TCF targets [1]; Table 7, 2.5µM, vs DMSO=1) of 0.1. For the same compound, the ASCL2 expression (WNT-TCF targets [1]; Table 7, 5µM, vs DMSO=1) was 0.1, the AXIN2 expression (WNT-TCF targets [1]; Table 7, 5µM, vs DMSO=1) was 0.3 and the CDKN1A expression (WNT-TCF targets [1]; Table 7, 5µM, vs DMSO=1) was 11.4. It also gave an LEF1 expression (WNT-TCF targets [1]; Table 7, 5µM, vs DMSO=1) of 0.5, an LGR5 expression (WNT-TCF targets [1]; Table 7, 5µM, vs DMSO=1) of 0.1 and a cMYC expression (WNT-TCF targets [1]; Table 7, 5µM, vs DMSO=1) of 0.1. It also gave an ASCL2 expression (WNT-TCF targets [1]; Table 7, 10µM, vs DMSO=1) of 0.1, an AXIN2 expression (WNT-TCF targets [1]; Table 7, 10µM, vs DMSO=1) of 0.1 and a CDKN1A expression (WNT-TCF targets [1]; Table 7, 10µM, vs DMSO=1) of 7.6. The LEF1 expression (WNT-TCF targets [1]; Table 7, 10µM, vs DMSO=1) was 0.3, the LGR5 expression (WNT-TCF targets [1]; Table 7, 10µM, vs DMSO=1) was 0.1 and the cMYC expression (WNT-TCF targets [1]; Table 7, 10µM, vs DMSO=1) was 0.01. It also gave an ASCL2 expression (WNT-TCF targets [1]; [7]) of 0.1, an AXIN2 expression (WNT-TCF targets [1]; [7]) of 0.3 and an LGR5 expression (WNT-TCF targets [1]; [7]) of 0.1. It also gave an AXIN2 expression (WNT-TCF targets [2]; 1.25µM) of 0.4, an LEF1 expression (WNT-TCF targets [2]; 1.25µM) of 0.1 and an AXIN2 expression (WNT-TCF targets [2]; 2.5µM) of 0.6. For the same compound, the LEF1 expression (WNT-TCF targets [2]; 2.5µM) was 0.2, the AXIN2 expression (WNT-TCF targets [2]; 5µM) was 0.3 and the LEF1 expression (WNT-TCF targets [2]; 5µM) was 0.1. It also gave an AXIN2 expression (WNT-TCF targets [2]; 10µM) of 0.6, an LEF1 expression (WNT-TCF targets [2]; 10µM) of 0.1 and an ASCL2 expression (WNT-TCF targets [3]; [8]) of 0.05. It also gave an AXIN2 expression (WNT-TCF targets [3]; [8]) of 0.4, an LEF1 expression (WNT-TCF targets [3]; [8]) of 0.4 and an LGR5 expression (WNT-TCF targets [3]; [8]) of 0.6. The cMYC expression (WNT-TCF targets [3]; [8]) was 0.2, the ASCL2 expression (WNT-TCF targets [3]; [9]) was 0.1 and the AXIN2 expression (WNT-TCF targets [3]; [9]) was 0.3. It also gave an LEF1 expression (WNT-TCF targets [3]; [9]) of 0.3, an LGR5 expression (WNT-TCF targets [3]; [9]) of 0.3 and a cMYC expression (WNT-TCF targets [3]; [9]) of 0.1. The ASCL2 expression (WNT-TCF targets [3]; [10]) was 0.1, the AXIN2 expression (WNT-TCF targets [3]; [10]) was 0.6 and the LEF1 expression (WNT-TCF targets [3]; [10]) was 0.4. The LGR5 expression (WNT-TCF targets [3]; [10]) was 0.7, the cMYC expression (WNT-TCF targets [3]; [10]) was 0.3 and the ASCL2 expression (WNT-TCF targets [3]; [11]) was 0.1. The AXIN2 expression (WNT-TCF targets [3]; [11]) was 0.6, the LEF1 expression (WNT-TCF targets [3]; [11]) was 0.3 and the LGR5 expression (WNT-TCF targets [3]; [11]) was 0.4. For the same compound, the cMYC expression (WNT-TCF targets [3]; [11]) was 0.3, the EED expression (Epigenetic regulators) was 0.5 and the SETD6 expression (Epigenetic regulators) was 1. For the same compound, the SMARCAL1 expression (Epigenetic regulators) was 0.2, the TAF5L expression (Epigenetic regulators) was 0.8 and the TBL1XR1 expression (Epigenetic regulators) was 0.2. It also gave a ZMYND8 expression (Epigenetic regulators) of 0.1.
